Results published in PubChem BioAssay AID849 (SRMLSC, 2007).
Active and inactive are the calls of the source. How the calls were made is not given here.

System: Saccharomyces cerevisiae lifespan shortening, growth inhibition
Assay: Saccharomyces cerevisiae growth inhibition potency – dose response (AID 849);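 further: yeast growth read as optical density after two days at 30 degrees C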

Row | Structure (SMILES) | IC50
1 | CC(Nc1ccc(Br)cn1)c1cc(Cl)ccc1O (stereo not drawn) | > 100 µM (inactive)
2 | COc1ccc(C(=O)NC(=S)NNC(=O)c2cnccn2)cc1OC | 20.5 µM
3 | CCCCCC/C(C)=C1/SC(=S)NC1=O | > 100 µM (inactive)
4 | c1ccc(-c2nc(-n3ccnc3)nc(-n3ccnc3)n2)cc1 | 34.3 µM
5 | O=c1cc(-c2ccccc2)[nH]n1-c1nc2ccccc2[nH]1 | 12.2 µM
6 | CCN1/C(=C/c2ccc3ccc(C)cc3[n+]2CC)Sc2ccccc21 | 21.4 µM
7 | N/C(=N\OC(=O)c1ccc(Cl)cc1Cl)c1ccccc1 | > 100 µM (inactive)
8 | Cc1onc(-c2ccccc2)c1C(=O)NC(=S)NNC(=O)c1ccc(O)cc1O | > 100 µM (inactive)
9 | Nc1ccc(SC(F)(F)F)cc1C(=O)c1ccccc1 | > 100 µM (inactive)
10 | COc1ccccc1-c1nnc(NC(=O)C(C)SC2=NCCS2)s1 (stereo not drawn) | > 100 µM (inactive)
11 | Clc1ccc2nnnc(-c3ccccc3)c2c1 | 38.8 µM
12 | COC(=O)CSCc1nc2ccccc2[nH]c1=O | > 100 µM (inactive)
13 | O=[N+]([O-])c1ccc(Cl)c(S(=O)(=O)N2CCCCCC2)c1 | 37.4 µM
14 | CCOC(=O)c1c(NC(=S)Nc2ccc(Cl)cc2)sc2c1CCN(C)C2 | 7.82 µM
15 | c1ccc2c(c1)oc1c(N3CCOCC3)ncnc12 | 32.1 µM
16 | CC(C)C(=O)NC(c1ccccc1)c1cc([N+](=O)[O-])c2cccnc2c1O (stereo not drawn) | 14.2 µM
17 | O=C(O)c1ccc2c3c(ncnc13)-c1ccccc1C2=O | 1.5 µM
18 | CCc1ccc(/C=C/C(=O)c2cc(Br)ccc(=O)c2O)cc1 | 9.89 µM
19 | O=S(=O)(Cc1ccccc1)NCc1cccnc1 | > 100 µM (inactive)
20 | Cc1ccc2nc(/C(C#N)=C\c3ccc([N+](=O)[O-])o3)[nH]c2c1 | 18.9 µM
21 | Oc1c(CN2CCN(c3ccc(F)cc3)CC2)cc(Cl)c2cccnc12 | 10.2 µM
22 | O=[N+]([O-])c1ccc(N/N=C2/CCCCC2c2ccccn2)cc1 (stereo not drawn) | 5.86 µM
23 | C=C(C)COc1ccc(-c2[nH]ncc2Oc2ccccc2OC)c(O)c1 | > 100 µM (inactive)
24 | O=[N+]([O-])c1cccc(/C=N/n2cnnc2)c1O | 19.7 µM

Row | Structure (SMILES) | IC50
25 | N/C(Cc1ccc(Cl)cc1Cl)=N\OC(=O)c1cccs1 | 0.78 µM
26 | Cc1cc(O)c(/C=N/Nc2ccc(Cl)cc2)c(=O)o1 | 5.9 µM
27 | CCCCCCCCC/C(=N\O)c1ccccn1 | 4.51 µM
28 | CN1C(=O)/C(=N/OC(=O)c2ccccc2)c2ccccc21 | > 100 µM (inactive)
29 | CCSc1nc(N)nc(-c2cccs2)c1C#N | 24.8 µM
30 | CC(C)(C)N/N=C/c1cc(Cl)cc([N+](=O)[O-])c1O | 12.9 µM
31 | O=C1OCC(CO)(CO)N=C1NNc1ccc(Cl)c(Cl)c1 | 2.89 µM
32 | CSC1=NSC2=NC(=O)/C(=C/c3coc4ccccc4c3=O)C(=N)N12 | 44.1 µM
33 | CNC(=O)Oc1cccc(-c2cn3cc(OC(=O)NC)ccc3n2)c1 | 10.3 µM
34 | CC(N=Cc1cccc(O)c1O)c1ccccc1 (stereo not drawn) | 9.02 µM
35 | Oc1cccc2ccc(Nc3ccccn3)nc12 | 14 µM
36 | O=C(c1cc(-c2ccccc2O)on1)N1CCc2ccccc2C1 | > 100 µM (inactive)
37 | Clc1ccc(N/N=C/c2cccnc2)cc1 | > 100 µM (inactive)
38 | CCc1cc2c(=O)[nH]c(-c3ccccn3)nc2s1 | 19.2 µM
39 | COc1ccc(-c2n[nH]c(C)c2-c2ccc(Cl)cc2)c(O)c1 | 33.4 µM
40 | Oc1ccc2ccccc2c1N=Nc1ccccn1 | 35.2 µM
41 | COC(=O)CSC1=NS(=O)(=O)c2ccccc21 | > 100 µM (inactive)
42 | Cc1cccc(OCCN2CSC(=S)N(C)C2)c1 | 13 µM
43 | O=C(Nc1nc(-c2ccccn2)cs1)c1ccc(Br)s1 | 9.04 µM
44 | CCCc1ccc(OCC(=O)NNC(=S)NC(=O)c2ccco2)cc1 | 15.1 µM
45 | CC(Oc1ccc2ccccc2c1)C(=O)NNC(=S)NC(=O)c1ccco1 (stereo not drawn) | 17.7 µM
46 | O=C(c1c[nH]c(C(=O)C(Cl)(Cl)Cl)c1)c1ccccc1Cl | > 100 µM (inactive)
47 | CC1(C)C(C=C(Cl)Cl)C1C(=O)Nc1ccc([N+](=O)[O-])cc1 (stereo not drawn) | 51.3 µM
48 | COc1ccc(C(=O)/C=C/Nc2ccc(C)cn2)cc1OC | > 100 µM (inactive)

Row | Structure (SMILES) | IC50
49 | CCOC(=O)C(=NC(C)CC)NNc1ccc(Br)cc1 (stereo not drawn) | 8.41 µM
50 | O=C(/C=C/c1ccccc1)c1cc(Br)ccc(=O)c1O | 10.1 µM
51 | COc1ccc2c(c1)S/C(=C\C(=O)c1ccncc1)N2C | 5.32 µM
52 | O=C1C2C3C=CC(CO)(O3)C2C(=O)N1c1ccccc1-c1ccccc1 (stereo not drawn) | > 100 µM (inactive)
53 | O=C(O)Cc1cc(I)c(Oc2ccc(O)c(I)c2)c(I)c1 | 23.9 µM
54 | NC(=O)c1sc2nc(-c3ccco3)ccc2c1N | > 100 µM (inactive)
55 | N/C(Cc1ccc(Cl)c(Cl)c1)=N\OC(=O)c1cccs1 | > 100 µM (inactive)
56 | Oc1c(C(Nc2nc3ccccc3s2)c2ccco2)ccc2cccnc12 (stereo not drawn) | > 100 µM (inactive)
57 | CCCCn1c(/N=C/c2c[nH]c3ccccc23)nc2ccccc21 | > 100 µM (inactive)
58 | Cc1ccc(-c2cc(-c3ccccc3Cl)[nH]n2)c(O)c1 | 51.1 µM
59 | CCCc1ccc(Oc2cn[nH]c2-c2ccc(O)c(C)c2O)cc1 | 6.65 µM
60 | COc1cccc(CC(=O)Nc2ccc3nc(C)sc3c2)c1 | 35 µM
61 | Oc1c(Cl)cc(Cl)c2c1NCCC2 | 17.4 µM
62 | O=C1CCN2C=Nc3cccc4ccc1c2c34 | 32.9 µM
63 | Cc1cc2c(cc(C(=O)O)n2C)s1 | 36.5 µM
64 | COc1ccccc1NC(=O)Cc1noc(CSc2cccc[n+]2[O-])n1 | 23.2 µM
65 | O=c1cc(-c2ccccc2)n(S(=O)(=O)c2ccccc2)o1 | 39.8 µM
66 | CCOC(=O)CSc1nnc(CSc2nc(N)c3c(C)c(C)sc3n2)n1-c1ccccc1 | > 100 µM (inactive)
67 | COc1ccc(CNC(=O)CSc2nnc(-c3ccc(NC(C)=O)cc3)n2C)cc1 | > 100 µM (inactive)
68 | CCOC(=O)N1CCN(C(=O)Cn2nc(C)c3sc4ccccc4c3c2=O)CC1 | > 100 µM (inactive)
69 | N#CC(c1cccc(Cl)c1)c1ccc2c(C(F)(F)F)cc(C(F)(F)F)nc2n1 (stereo not drawn) | > 100 µM (inactive)
70 | C(=C\c1nc(N2CCCCCC2)c2ccccc2n1)/c1ccccc1 | 42.1 µM
71 | Cn1cccc1C(=O)NC(=O)CSc1cccc[n+]1[O-] | 21.8 µM
72 | CCC(=C(c1ccc(OC)cc1)c1ccc(OC)cc1)c1cn(CC(O)CN2CCN(C)CC2)c2ccccc12 (stereo not drawn) | 36.9 µM

Row | Structure (SMILES) | IC50
73 | CCC(C)NC(=O)C1CCN(S(=O)(=O)c2cccc3cccnc23)CC1 (stereo not drawn) | > 100 µM (inactive)
74 | O=S(=O)(Nc1ccc(-c2nc3ccccc3o2)cc1)c1ccccc1 | > 100 µM (inactive)
75 | Cc1ccc(OC(=S)Nc2ccc(O)cc2)cc1 | 14 µM
76 | COc1ccc2cc(C(=O)O)ccc2c1 | 13.9 µM
77 | CCCCCCCCCCCCCCCC[n+]1cccc(C(=O)N(CC)CC)c1 | 3.69 µM
78 | CC1=NOC(=O)/C1=C/c1ccc(-c2ccc(Cl)cc2)o1 | > 100 µM (inactive)
79 | Clc1ccc(CCNc2nc3ccccc3s2)cc1 | > 100 µM (inactive)
80 | Cc1cc(OCc2ccc(C(=O)NN=C3CCCC3)cc2)ccc1Cl | 43.6 µM
81 | Clc1cc2nc3ccccn3c2cc1Cl | 51.5 µM
82 | Clc1ccc(N/N=C/c2ccncc2)cc1Cl | > 100 µM (inactive)
83 | CCOC(=O)c1c(N)sc2c(OC)c(Br)ccc12 | > 100 µM (inactive)
84 | CCOC(=O)C1C(C)N=C2SCC(=O)N2C1c1cccc(Br)c1 (stereo not drawn) | > 100 µM (inactive)
85 | CN(c1ccccc1)c1ccc(/C=C/[N+](=O)[O-])cc1 | 49.2 µM
86 | O=S(=O)(NC1CC2CCC1C2)c1ccc(Br)s1 (stereo not drawn) | 2.07 µM
87 | Cc1ccc2nc3c(nc2c1)-c1ccccc1C3=O | 30.3 µM
88 | Clc1ccc2[nH]c3c(c2c1)CCc1cn[nH]c1-3 | 12.5 µM
89 | CCC(C)NC(=O)CS(=O)Cc1nc(-c2ccccc2C)oc1C (stereo not drawn) | > 100 µM (inactive)
90 | CCOc1ccc(-c2[nH]ncc2Oc2cccc(OC)c2)c(O)c1 | 22.8 µM
91 | Cc1cc(-c2n[nH]c(=S)n2/N=C/c2cc([N+](=O)[O-])ccc2Cl)n[nH]1 | > 100 µM (inactive)
92 | Cc1ccccc1C(=O)O/N=C/c1c(N2CCOCC2)n(C)c2ccccc12 | 49.9 µM
93 | CCCCn1c(=O)c(C(=O)NCc2ccncc2)c(O)c2ccccc21 | > 100 µM (inactive)
94 | Clc1ccc(COC(Cn2ccnc2)c2ccc(Cl)cc2Cl)c(Cl)c1 (stereo not drawn) | < 0.098 µM
95 | CC(=O)Oc1ccc(N2C(=O)C3C(C2=O)C2(C)C=CC3(C)O2)cc1 (stereo not drawn) | > 100 µM (inactive)
96 | C=CCC1c2cccc(C(=O)O)c2C(=O)N1c1cccc(C)c1 (stereo not drawn) | 2.79 µM

Row | Structure (SMILES) | IC50
97 | Cc1ccccc1OCCCN1C(=O)C(=O)c2cccc(C)c21 | > 100 µM (inactive)
98 | O=C(CN1CCN(c2ncc(C(F)(F)F)cc2Cl)CC1)NCCNc1ncc(C(F)(F)F)cc1Cl | 42.5 µM
99 | Oc1c(Br)cc(Cl)cc1C=Nc1ccccc1Br | 27.1 µM
100 | O=C(/C(=C/O)N=Nc1ccccc1)c1ccncc1 | 14.5 µM
101 | c1ccc(-c2ccc(C(c3ccccc3)n3ccnc3)cc2)cc1 (stereo not drawn) | 1.67 µM
102 | COc1cc(OC)c(C2CC(=O)N3CN(C)CSC3=C2C#N)cc1OC (stereo not drawn) | > 100 µM (inactive)
103 | Cc1cccc(C(=O)NC(=S)NNC(=O)c2cccs2)c1 | 30.6 µM
104 | CCSc1nnc(NC(=O)c2ccccn2)s1 | 9.84 µM
105 | CC1=NOC(=O)/C1=C\c1ccc(-c2ccc(Cl)cc2Cl)o1 | > 100 µM (inactive)
106 | Cc1ccc(C(=O)O/N=C/c2c(N3CCOCC3)n(C)c3ccccc23)cc1 | > 100 µM (inactive)
107 | CCc1ccc2c(c1)C1(NN=C(c3ccccc3)S1)C(=O)N2 (stereo not drawn) | 24.6 µM
108 | c1ccc(N(c2ccccc2)c2nc(-n3ccnc3)nc(-n3ccnc3)n2)cc1 | > 100 µM (inactive)
109 | O=C1c2ccccc2NC(c2ccc(-c3cccc(Cl)c3)o2)N1O (stereo not drawn) | 35 µM
110 | CC(C)(C)c1nnc(N/N=C/c2cc(Br)ccc2O)n(N)c1=O | 50 µM
111 | Cc1ccc(-n2nnc3c(=O)n(CC(=O)N4CCC(C)CC4)cnc32)cc1 | > 100 µM (inactive)
112 | Clc1ccccc1N/N=C/c1ccc2c(c1)OCO2 | 32.5 µM
113 | CCCCCCCCCCn1c2c(c(=N)c3c1CCC3)CCC2 | 9.12 µM
114 | O=C(/C=C/c1ccccc1Cl)c1ccccc(=O)c1O | 9.76 µM
115 | CC1CCCC2(C1)NC(=S)N(c1ccccc1)N2 (stereo not drawn) | 38.2 µM
116 | N/C(Cc1ccc(Cl)cc1)=N\OC(=O)C1CCCCC1 | 11.5 µM
117 | CCCCOc1ccc(C(=O)NNC(=S)NC(=O)CC)cc1 | 41.5 µM
118 | O=C(Nc1cc(C(F)(F)F)ccc1Cl)C(Sc1cccc[n+]1[O-])c1ccccc1 (stereo not drawn) | 4.89 µM
